Measurements reported in ChEMBL document CHEMBL3112480, “γ-Alkylidene-γ-lactones and isobutylpyrrol-2(5H)-ones analogues to rubrolides as inhibitors of biofilm formation by gram-positive and gram-negative bacteria” (Bioorg Med Chem Lett, 2014).
Values after ≈ are worked out from the molar mass of the structure shown. Blank lines part the entries; values can stand above or below the molecule they belong to.

Experiments:
Streptococcus mutans [1] = assay: Antibacterial activity against Streptococcus mutans ATCC 25175 assessed as effect on planktonic growth at 43.8 ug/ml after 20 hrs relative to control; format: functional
Streptococcus mutans [2] = assay: Antibacterial activity against Streptococcus mutans ATCC 25175 assessed as effect on planktonic growth at 5.5 ug/ml after 20 hrs relative to control; format: functional
Pseudomonas aeruginosa [3] = assay: Antibacterial activity against Pseudomonas aeruginosa ATCC 27853 assessed as effect on planktonic growth at 0.68 ug/ml after 20 hrs relative to control; format: functional
Pseudomonas aeruginosa [4] = assay: Antibacterial activity against Pseudomonas aeruginosa ATCC 27853 assessed as effect on planktonic growth at 2.73 ug/ml after 20 hrs relative to control; format: functional
[5] = tested on: Staphylococcus epidermidis; assay: Antibacterial activity against Staphylococcus epidermidis ATCC 35547 assessed as effect on planktonic growth at 21.9 ug/ml after 20 hrs relative to control; format: functional
[6] = tested on: Staphylococcus epidermidis; assay: Antibacterial activity against Staphylococcus epidermidis ATCC 35547 assessed as effect on planktonic growth at 1.37 ug/ml after 20 hrs relative to control; format: functional
Staphylococcus aureus [7] = assay: Antibacterial activity against Staphylococcus aureus ATCC 25923 assessed as effect on planktonic growth at 21.9 ug/ml after 20 hrs relative to control; format: functional
Pseudomonas aeruginosa [8] = assay: Antibacterial activity against Pseudomonas aeruginosa ATCC 27853 assessed as effect on planktonic growth at 21.9 ug/ml after 20 hrs relative to control; format: functional
Streptococcus mutans [9] = assay: Antibacterial activity against Streptococcus mutans ATCC 25175 assessed as effect on planktonic growth at 0.17 ug/ml after 20 hrs relative to control; format: functional
[10] = tested on: Staphylococcus epidermidis; assay: Antibacterial activity against Staphylococcus epidermidis ATCC 35547 assessed as effect on planktonic growth at 43.8 ug/ml after 20 hrs relative to control; format: functional
[11] = tested on: Staphylococcus epidermidis; assay: Antibacterial activity against Staphylococcus epidermidis ATCC 35547 assessed as effect on planktonic growth at 87.5 ug/ml after 20 hrs relative to control; format: functional
Pseudomonas aeruginosa [12] = assay: Antibacterial activity against Pseudomonas aeruginosa ATCC 27853 assessed as effect on planktonic growth at 10.9 ug/ml after 20 hrs relative to control; format: functional
Streptococcus mutans [13] = assay: Antibacterial activity against Streptococcus mutans ATCC 25175 assessed as effect on planktonic growth at 0.34 ug/ml after 20 hrs relative to control; format: functional
[14] = tested on: Staphylococcus epidermidis; assay: Antibacterial activity against Staphylococcus epidermidis ATCC 35547 assessed as effect on planktonic growth at 0.68 ug/ml after 20 hrs relative to control; format: functional
Staphylococcus aureus [15] = assay: Antibacterial activity against Staphylococcus aureus ATCC 25923 assessed as effect on planktonic growth at 2.73 ug/ml after 20 hrs relative to control; format: functional
[16] = tested on: Staphylococcus epidermidis; assay: Antibacterial activity against Staphylococcus epidermidis ATCC 35547 assessed as effect on planktonic growth at 0.17 ug/ml after 20 hrs relative to control; format: functional
Streptococcus mutans [17] = assay: Antibacterial activity against Streptococcus mutans ATCC 25175 assessed as effect on planktonic growth at 87.5 ug/ml after 20 hrs relative to control; format: functional
Pseudomonas aeruginosa [18] = assay: Antibacterial activity against Pseudomonas aeruginosa ATCC 27853 assessed as effect on planktonic growth at 1.37 ug/ml after 20 hrs relative to control; format: functional
[19] = tested on: Staphylococcus epidermidis; assay: Antibacterial activity against Staphylococcus epidermidis ATCC 35547 assessed as effect on planktonic growth at 2.73 ug/ml after 20 hrs relative to control; format: functional
Staphylococcus aureus [20] = assay: Antibacterial activity against Staphylococcus aureus ATCC 25923 assessed as effect on planktonic growth at 87.5 ug/ml after 20 hrs relative to control; format: functional
Staphylococcus aureus [21] = assay: Antibacterial activity against Staphylococcus aureus ATCC 25923 assessed as effect on planktonic growth at 0.34 ug/ml after 20 hrs relative to control; format: functional
[22] = tested on: Staphylococcus epidermidis; assay: Antibacterial activity against Staphylococcus epidermidis ATCC 35547 assessed as effect on planktonic growth at 5.5 ug/ml after 20 hrs relative to control; format: functional
Pseudomonas aeruginosa [23] = assay: Antibacterial activity against Pseudomonas aeruginosa ATCC 27853 assessed as effect on planktonic growth at 43.8 ug/ml after 20 hrs relative to control; format: functional
Streptococcus mutans [24] = assay: Antibacterial activity against Streptococcus mutans ATCC 25175 assessed as effect on planktonic growth at 21.9 ug/ml after 20 hrs relative to control; format: functional
Streptococcus mutans [25] = assay: Antibacterial activity against Streptococcus mutans ATCC 25175 assessed as effect on planktonic growth at 10.9 ug/ml after 20 hrs relative to control; format: functional
Pseudomonas aeruginosa [26] = assay: Antibacterial activity against Pseudomonas aeruginosa ATCC 27853 assessed as effect on planktonic growth at 0.17 ug/ml after 20 hrs relative to control; format: functional
Staphylococcus aureus [27] = assay: Antibacterial activity against Staphylococcus aureus ATCC 25923 assessed as effect on planktonic growth at 0.68 ug/ml after 20 hrs relative to control; format: functional
Staphylococcus aureus [28] = assay: Antibacterial activity against Staphylococcus aureus ATCC 25923 assessed as effect on planktonic growth at 43.8 ug/ml after 20 hrs relative to control; format: functional
Streptococcus mutans [29] = assay: Antibacterial activity against Streptococcus mutans ATCC 25175 assessed as effect on planktonic growth at 2.73 ug/ml after 20 hrs relative to control; format: functional
Streptococcus mutans [30] = assay: Antibacterial activity against Streptococcus mutans ATCC 25175 assessed as effect on planktonic growth at 1.37 ug/ml after 20 hrs relative to control; format: functional
Staphylococcus aureus [31] = assay: Antibacterial activity against Staphylococcus aureus ATCC 25923 assessed as effect on planktonic growth at 5.5 ug/ml after 20 hrs relative to control; format: functional
[32] = tested on: Staphylococcus epidermidis; assay: Antibacterial activity against Staphylococcus epidermidis ATCC 35547 assessed as inhibition of biofilm formation after 20 hrs by crystal-violet staining method; format: functional, organism-based; settings: for IC50: ATCC 35547, 20 h
Staphylococcus aureus [33] = assay: Antibacterial activity against Staphylococcus aureus ATCC 25923 assessed as effect on planktonic growth at 1.37 ug/ml after 20 hrs relative to control; format: functional
[34] = tested on: Staphylococcus epidermidis; assay: Antibacterial activity against Staphylococcus epidermidis ATCC 35547 assessed as effect on planktonic growth at 10.9 ug/ml after 20 hrs relative to control; format: functional
Streptococcus mutans [35] = assay: Antibacterial activity against Streptococcus mutans ATCC 25175 assessed as effect on planktonic growth at 0.68 ug/ml after 20 hrs relative to control; format: functional
Pseudomonas aeruginosa [36] = assay: Antibacterial activity against Pseudomonas aeruginosa ATCC 27853 assessed as effect on planktonic growth at 0.34 ug/ml after 20 hrs relative to control; format: functional
Pseudomonas aeruginosa [37] = assay: Antibacterial activity against Pseudomonas aeruginosa ATCC 27853 assessed as effect on planktonic growth at 87.5 ug/ml after 20 hrs relative to control; format: functional
Staphylococcus aureus [38] = assay: Antibacterial activity against Staphylococcus aureus ATCC 25923 assessed as effect on planktonic growth at 10.9 ug/ml after 20 hrs relative to control; format: functional
Staphylococcus aureus [39] = assay: Antibacterial activity against Staphylococcus aureus ATCC 25923 assessed as effect on planktonic growth at 0.17 ug/ml after 20 hrs relative to control; format: functional
Pseudomonas aeruginosa [40] = assay: Antibacterial activity against Pseudomonas aeruginosa ATCC 27853 assessed as inhibition of biofilm formation after 20 hrs by crystal-violet staining method; format: functional, organism-based
[41] = tested on: Staphylococcus epidermidis; assay: Antibacterial activity against Staphylococcus epidermidis ATCC 35547 assessed as effect on planktonic growth at 0.34 ug/ml after 20 hrs relative to control; format: functional
Pseudomonas aeruginosa [42] = assay: Antibacterial activity against Pseudomonas aeruginosa ATCC 27853 assessed as effect on planktonic growth at 5.5 ug/ml after 20 hrs relative to control; format: functional

- IC50 [32]: 46.7 µg/mL (≈ 88.8 µM)
- IC50 (Pseudomonas aeruginosa [40]; ATCC 27853, 20 h): > 87.5 µg/mL
Compound: COc1ccc(Br)cc1C1=C(Br)C(=O)N(CC(C)C)/C1=C/c1cccc(Cl)c1
- Activity (Streptococcus mutans [1]): 2.5%
- Activity (Streptococcus mutans [2]): 2.8%
- Activity (Pseudomonas aeruginosa [3]): 3.4%
- Activity (Pseudomonas aeruginosa [4]): 4.7%
- Activity [5]: 27.7%
- Activity [6]: 1%
- Activity (Staphylococcus aureus [7]): -13.1%
- Activity (Pseudomonas aeruginosa [8]): -4.5%
- Activity (Streptococcus mutans [9]): 6%
- Activity [10]: 56.1%
- Activity [11]: 70.2%
- Activity (Pseudomonas aeruginosa [12]): -7%
- Activity (Streptococcus mutans [13]): 7%
- Activity [14]: 4.8%
- Activity (Staphylococcus aureus [15]): -14%
- Activity [16]: 2.1%
- Activity (Streptococcus mutans [17]): -7.3%
- Activity (Pseudomonas aeruginosa [18]): 5%
- Activity [19]: 11.4%
- Activity (Staphylococcus aureus [20]): 12.8%
- Activity (Staphylococcus aureus [21]): -17.1%
- Activity [22]: 21.1%
- Activity (Pseudomonas aeruginosa [23]): -3.2%
- Activity (Streptococcus mutans [24]): -7.5%
- Activity (Streptococcus mutans [25]): 8.3%
- Activity (Pseudomonas aeruginosa [26]): 1.8%
- Activity (Staphylococcus aureus [27]): -19.6%
- Activity (Staphylococcus aureus [28]): -5.2%
- Activity (Streptococcus mutans [29]): 12.6%
- Activity (Streptococcus mutans [30]): 15.3%
- Activity (Staphylococcus aureus [31]): -16%
- inhibition [32]: Dose-dependent effect
- Activity (Staphylococcus aureus [33]): -17.8%
- Activity [34]: 10.8%
- Activity (Streptococcus mutans [35]): -6.5%
- Activity (Pseudomonas aeruginosa [36]): -3.3%
- Activity (Pseudomonas aeruginosa [37]): 15.5%
- Activity (Staphylococcus aureus [38]): -11.9%
- Activity (Staphylococcus aureus [39]): -18.7%
- inhibition (Pseudomonas aeruginosa [40]): Dose-dependent effect
- Activity [41]: 4.9%
- Activity (Pseudomonas aeruginosa [42]): -4%

- IC50 [32]: 13.3 µg/mL (≈ 22.6 µM)
Compound: COc1ccc(Br)cc1C1=C(Br)C(=O)N(CC(C)C)C1(O)Cc1ccc(Br)cc1 (configuration not stated)
- Activity (Streptococcus mutans [1]): -17.9%
- Activity (Streptococcus mutans [2]): -3%
- Activity (Pseudomonas aeruginosa [3]): -7%
- Activity (Pseudomonas aeruginosa [4]): 0.8%
- Activity [5]: 55.8%
- Activity [6]: 8%
- Activity (Staphylococcus aureus [7]): -15.6%
- Activity (Pseudomonas aeruginosa [8]): 58.3%
- Activity (Streptococcus mutans [9]): -13.2%
- Activity [10]: 43.6%
- Activity [11]: 29.8%
- Activity (Pseudomonas aeruginosa [12]): 64.1%
- Activity (Streptococcus mutans [13]): -7%
- Activity [14]: -5.4%
- Activity (Staphylococcus aureus [15]): -17.9%
- Activity [16]: 2.1%
- Activity (Streptococcus mutans [17]): 0.2%
- Activity (Pseudomonas aeruginosa [18]): -4.5%
- Activity [19]: 4.8%
- Activity (Staphylococcus aureus [20]): 7.4%
- Activity (Staphylococcus aureus [21]): -3.4%
- Activity [22]: -2.4%
- Activity (Pseudomonas aeruginosa [23]): 63.9%
- Activity (Streptococcus mutans [24]): -13.7%
- Activity (Streptococcus mutans [25]): -8%
- Activity (Pseudomonas aeruginosa [26]): -4%
- Activity (Staphylococcus aureus [27]): -10.8%
- Activity (Staphylococcus aureus [28]): -13.7%
- Activity (Streptococcus mutans [29]): -6%
- Activity (Streptococcus mutans [30]): 4%
- Activity (Staphylococcus aureus [31]): -9%
- inhibition [32]: Dose-dependent effect
- Activity (Staphylococcus aureus [33]): -14.8%
- Activity [34]: 11.2%
- Activity (Streptococcus mutans [35]): -8%
- Activity (Pseudomonas aeruginosa [36]): -5.7%
- Activity (Pseudomonas aeruginosa [37]): 39.4%
- Activity (Staphylococcus aureus [38]): -11.3%
- Activity (Staphylococcus aureus [39]): 1.1%
- inhibition (Pseudomonas aeruginosa [40]): Dose-dependent effect
- Activity [41]: 4.3%
- Activity (Pseudomonas aeruginosa [42]): 58.3%
